Measured values taken from ChEMBL document CHEMBL1201862, “PubChem BioAssay data set” (2004).
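How tested: cells in 96-well plates exposed to compound for 48 hours at five concentrations. GI50 = concentration required for 50% inhibition of growth.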 Calls of active or inactive are those of the source. Rule as the data show it: active = GI50 up to about 1.1 µM and inactive = higher.

Legend:
Assay in all cases: growth of human tumour cells (NCI), 48 h
786-0 = system: 786-0
A498 = system: A498
A549 = system: A549
ACHN = system: ACHN
CAKI-1 = system: CAKI-1
CCRF-CEM = system: CCRF-CEM
COLO 205 = system: COLO 205
DLD-1 = system: DLD-1
DMS-114 = system: DMS-114
DMS-273 = system: DMS-273
EKVX = system: EKVX
HCC 2998 = system: HCC 2998
HCT-116 = system: HCT-116
HCT-15 = system: HCT-15
HL-60 = system: HL-60
HOP-62 = system: HOP-62
HT-29 = system: HT-29
IGROV-1 = system: IGROV-1
K562 = system: K562
KM-20L2 = system: KM-20L2
LOX IMVI = system: LOX IMVI
LXFL 529 = system: LXFL 529
M14 = system: M14
M19-MEL = system: M19-MEL
MOLT-4 = system: MOLT-4
Malme-3M = system: Malme-3M
NCI-H226 = system: NCI-H226
NCI-H23 = system: NCI-H23
NCI-H460 = system: NCI-H460
NCI-H522 = system: NCI-H522
OVCAR-4 = system: OVCAR-4
OVCAR-8 = system: OVCAR-8
RPMI-8226 = system: RPMI-8226
SF-295 = system: SF-295
SF-539 = system: SF-539
SK-MEL-2 = system: SK-MEL-2
SK-MEL-5 = system: SK-MEL-5
SN12C = system: SN12C
SNB-19 = system: SNB-19
SNB-75 = system: SNB-75
SR = system: SR
SW-620 = system: SW-620
TK-10 = system: TK-10
U-251 = system: U-251
UACC-257 = system: UACC-257
UACC-62 = system: UACC-62
UO-31 = system: UO-31
XF498 = system: XF498
BT-549 = system: BT-549
DU-145 = system: DU-145
HOP-92 = system: HOP-92
Hs-578T = system: Hs-578T
KM12 = system: KM12
MCF7 = system: MCF7
MDA-MB-231 = system: MDA-MB-231
MDA-MB-435 = system: MDA-MB-435
MDA-N = system: MDA-N
NCI/ADR-RES = system: NCI/ADR-RES
OVCAR-3 = system: OVCAR-3
OVCAR-5 = system: OVCAR-5
PC-3 = system: PC-3
RXF 393 = system: RXF 393
SF-268 = system: SF-268
SK-MEL-28 = system: SK-MEL-28
SK-OV-3 = system: SK-OV-3
T47D = system: T47D

Measured: GI50

Cc1ccc(S(=O)(=O)N/N=C/CN2C(=O)c3ccccc3C2=O)cc1
inactive: 786-0 > 100 µM | A498 > 100 µM | A549 > 100 µM | ACHN > 100 µM | CAKI-1 > 100 µM | CCRF-CEM > 100 µM | COLO 205 > 100 µM | DLD-1 > 100 µM | DMS-114 > 100 µM | DMS-273 > 100 µM | EKVX > 100 µM | HCC 2998 > 100 µM | HCT-116 > 100 µM | HL-60 > 100 µM | HOP-62 > 100 µM | HT-29 > 100 µM | IGROV-1 > 100 µM | K562 > 100 µM | KM-20L2 > 100 µM | LOX IMVI > 100 µM | LXFL 529 > 100 µM | M14 > 100 µM | M19-MEL > 100 µM | MOLT-4 > 100 µM | Malme-3M > 100 µM | NCI-H226 82.2 µM | NCI-H23 > 100 µM | NCI-H460 > 100 µM | NCI-H522 > 100 µM | OVCAR-4 > 100 µM | OVCAR-8 > 100 µM | RPMI-8226 > 100 µM | SF-295 > 100 µM | SF-539 > 100 µM | SK-MEL-2 > 100 µM | SK-MEL-5 > 100 µM | SN12C > 100 µM | SNB-19 > 100 µM | SNB-75 > 100 µM | SR > 100 µM | SW-620 > 100 µM | TK-10 > 100 µM | U-251 > 100 µM | UACC-257 > 100 µM | UACC-62 89.5 µM | UO-31 > 100 µM | XF498 > 100 µM
> 100 µM: HCT-15

Cc1cc(S(=O)(=O)Nc2nc(Nc3ccccc3)n[nH]2)c(SCC(=O)O)cc1Cl
inactive: 786-0 > 100 µM | A498 > 100 µM | A549 > 100 µM | ACHN > 100 µM | BT-549 > 100 µM | CAKI-1 > 100 µM | CCRF-CEM > 100 µM | COLO 205 > 100 µM | DU-145 > 100 µM | EKVX > 100 µM | HCC 2998 > 100 µM | HCT-116 > 100 µM | HL-60 > 100 µM | HOP-62 > 100 µM | HOP-92 > 100 µM | HT-29 > 100 µM | Hs-578T > 100 µM | IGROV-1 > 100 µM | K562 > 100 µM | KM12 > 100 µM | LOX IMVI > 100 µM | M14 > 100 µM | MCF7 > 100 µM | MDA-MB-231 > 100 µM | MDA-MB-435 > 100 µM | MDA-N > 100 µM | MOLT-4 > 100 µM | Malme-3M > 100 µM | NCI-H226 > 100 µM | NCI-H23 > 100 µM | NCI-H460 > 100 µM | NCI-H522 > 100 µM | NCI/ADR-RES > 100 µM | OVCAR-3 > 100 µM | OVCAR-4 > 100 µM | OVCAR-5 > 100 µM | OVCAR-8 > 100 µM | PC-3 > 100 µM | RPMI-8226 > 100 µM | RXF 393 > 100 µM | SF-268 > 100 µM | SF-295 > 100 µM | SF-539 > 100 µM | SK-MEL-28 > 100 µM | SK-MEL-2 > 100 µM | SK-MEL-5 > 100 µM | SK-OV-3 > 100 µM | SN12C > 100 µM | SNB-19 > 100 µM | SNB-75 > 100 µM | SR > 100 µM | SW-620 > 100 µM | T47D > 100 µM | TK-10 > 100 µM | U-251 > 100 µM | UACC-257 > 100 µM | UACC-62 > 100 µM | UO-31 > 100 µM
> 100 µM: HCT-15

CCCCCC1=CC(=O)C1(Cl)Cl
inactive: 786-0 13.9 µM | A498 20.4 µM | A549 23.5 µM | ACHN 8.3 µM | BT-549 17.9 µM | CAKI-1 8.3 µM | CCRF-CEM 2.23 µM | COLO 205 12.2 µM | DU-145 13.1 µM | EKVX 20.1 µM | HCC 2998 14.2 µM | HCT-116 11.9 µM | HL-60 1.83 µM | HOP-62 21.4 µM | HOP-92 13.4 µM | HT-29 14.6 µM | Hs-578T 19 µM | IGROV-1 18.4 µM | K562 4.68 µM | KM12 13.2 µM | LOX IMVI 6.52 µM | M14 18.4 µM | MCF7 8.11 µM | MDA-MB-231 9.93 µM | MDA-MB-435 11.1 µM | MDA-N 10.5 µM | MOLT-4 3.67 µM | Malme-3M 9.55 µM | NCI-H226 15.3 µM | NCI-H23 14.3 µM | NCI-H460 19.6 µM | NCI-H522 5.24 µM | NCI/ADR-RES 17.9 µM | OVCAR-3 8.69 µM | OVCAR-4 15.9 µM | OVCAR-5 15.4 µM | OVCAR-8 10.6 µM | PC-3 14.5 µM | RPMI-8226 2.77 µM | RXF 393 12.7 µM | SF-268 14.7 µM | SF-295 18.9 µM | SF-539 12.4 µM | SK-MEL-28 14.5 µM | SK-MEL-2 20.4 µM | SK-MEL-5 9.48 µM | SK-OV-3 33.9 µM | SN12C 20.3 µM | SNB-19 24.9 µM | SNB-75 11.1 µM | SR 6 µM | SW-620 11.9 µM | T47D 8.24 µM | TK-10 5.81 µM | U-251 9.23 µM | UACC-257 12.2 µM | UACC-62 10.9 µM | UO-31 15.4 µM
12.6 µM: HCT-15

COC1=C(Br)C(O)C2(C=C1Br)CC(C(=O)NCCCCNC(=O)C1=NOC3(C=C(Br)C(OC)=C(Br)C3O)C1)=NO2 (centres undefined)
inactive: 786-0 31.1 µM | A498 31 µM | A549 30.6 µM | ACHN 26.3 µM | BT-549 33.6 µM | CAKI-1 63.4 µM | CCRF-CEM 10.1 µM | COLO 205 15.8 µM | DU-145 31.6 µM | HCC 2998 52.1 µM | HCT-116 18.2 µM | HL-60 20.6 µM | HOP-62 30.5 µM | HOP-92 26.2 µM | HT-29 15.9 µM | Hs-578T 12.4 µM | IGROV-1 11.7 µM | K562 16.3 µM | KM12 12.4 µM | LOX IMVI 17 µM | M14 15.5 µM | MCF7 21.8 µM | MDA-MB-231 22.3 µM | MDA-MB-435 19.9 µM | MDA-N 16.7 µM | Malme-3M 16.4 µM | NCI-H226 4.73 µM | NCI-H23 40.5 µM | NCI-H460 26.4 µM | NCI-H522 11.3 µM | NCI/ADR-RES 51.2 µM | OVCAR-3 15.6 µM | OVCAR-4 54.3 µM | OVCAR-5 50.4 µM | OVCAR-8 20.3 µM | PC-3 20.4 µM | RPMI-8226 8.99 µM | RXF 393 24.8 µM | SF-268 13.5 µM | SF-295 25.1 µM | SF-539 19.8 µM | SK-MEL-28 25.5 µM | SK-MEL-2 23.7 µM | SK-MEL-5 11.9 µM | SK-OV-3 27.2 µM | SN12C 25.6 µM | SNB-19 37.3 µM | SNB-75 16.9 µM | SR 13.8 µM | SW-620 37.1 µM | T47D 11.4 µM | TK-10 65.3 µM | U-251 25.8 µM | UACC-257 16.3 µM | UACC-62 31.8 µM | UO-31 43.2 µM
49 µM: HCT-15

COc1ccc2c(c1)-c1nn(CCCN(C)C)c3ccc([N+](=O)[O-])c(c13)N2 [PYRAZOLOACRIDINE]
active: 786-0 0.191 µM | CAKI-1 0.396 µM | DLD-1 0.262 µM | DMS-273 0.135 µM | DU-145 0.484 µM | HCT-116 0.0986 µM | HT-29 0.137 µM | Hs-578T 0.603 µM | M14 0.61 µM | MCF7 0.333 µM | MOLT-4 0.0662 µM | NCI-H23 0.662 µM | NCI/ADR-RES 0.0986 µM | OVCAR-8 0.118 µM | RPMI-8226 0.305 µM | SF-268 0.283 µM | SK-MEL-2 0.647 µM | SK-MEL-5 0.536 µM | SN12C 0.199 µM | SR 0.173 µM | SW-620 0.133 µM
